Results reported in patent US6914045B2, “Glycopeptide antibiotics” (Wyeth Holdings Corporation, priority 2001, dated 2005).
≈ marks a conversion by molar mass, not a printed value.

Legend:
Assay in all cases: in vitro antibacterial evaluation, MIC by broth dilution
Format in all cases: cell-based
Staphylococcus sp. = conditions: broth dilution, 18 hours at 35° C.
Procedure, shortened: (§1)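 Inoculum 5×10^5 CFU/mL; concentrations 64 to 0.06 μg/mL; MIC defined as lowest inhibitory level. Conducted by broth dilution under NCCLS guidelines.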

Enterococcus sp. = conditions: broth dilution, 18 hours at 35° C.
Procedure, shortened: as §1

Streptococcus sp. = conditions: broth dilution, 18 hours at 35° C.
Procedure, shortened: as §1

Escherichia coli = conditions: 18 hours at 35° C.
Procedure, shortened: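 Broth dilution in Muller-Hinton II medium per NCCLS standard M7-A2, with an inoculum of 5×10^5 CFU/mL and antibiotic tested over 64-0.06 μg/mL. MIC was taken as the lowest concentration inhibiting visible growth.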

## CC(c1ccccc1)C1NC(=O)CNC(=O)C(CO)NC(=O)C(C(O)C2CN(c3nc4ccccc4o3)C(=N)N2C2OC(CO)C(O)C(O)C2O)NC(=O)C(C(O)C2CNC(=Nc3nc4ccccc4o3)N2)NC(=O)C(Cc2ccc(OC3OC(CO)C(OC4OC(CO)C(O)C(O)C4O)C(O)C3O)cc2)NC1=O (stereo not drawn) [Example 93, Cyclo[glycyl-β-methylphenylalanyl-O-(4-O-hexopyranosylhexopyranosyl)tyrosyl-3-[2-(1,3-benzoxazol-2-ylimino)imidazolidin-4-yl]seryl-3-[1-(1,3-benzoxaxol-2-yl)-3-hexopyranosyl-2-iminoimidazolidin-4-yl]serylseryl]]
Staphylococcus sp.
  MIC Coagulase Negative Staphylococcus (GC 4547): >128 µg/mL
  MIC Coagulase Negative Staphylococcus (GC 4548): >128 µg/mL
  MIC Coagulase Negative Staphylococcus (GC 4549): >128 µg/mL
  MIC Coagulase Negative Staphylococcus (GC 4551): >128 µg/mL
  MIC Staphylococcus aureus-SMITH (GC 4543): >128 µg/mL
  MIC Staphylococcus haemolyticus (GC 4546): >128 µg/mL
Staphylococcus sp.; strain ATCC 29213
  MIC Staphylococcus aureus (ATCC 29213): >128 µg/mL
Staphylococcus sp.; strain GC 1131
  MIC Staphylococcus aureus (GC 1131): >128 µg/mL
Staphylococcus sp.; strain GC 3051
  MIC Staphylococcus aureus (GC 3051): >128 µg/mL
Staphylococcus sp.; strain GC 3053
  MIC Staphylococcus aureus (GC 3053): >128 µg/mL
Staphylococcus sp.; strain GC 4541
  MIC Staphylococcus aureus (GC 4541): >128 µg/mL
Staphylococcus sp.; strain GC 4542
  MIC Staphylococcus aureus (GC 4542): >128 µg/mL
Staphylococcus sp.; strain GC 4543
  MIC Staphylococcus aureus-SMITH (GC 4543): >128 µg/mL
Staphylococcus sp.; strain GC 4544
  MIC Staphylococcus aureus (GC 4544): >128 µg/mL
Staphylococcus sp.; strain GC 4545
  MIC Staphylococcus aureus (GC 4545): >128 µg/mL
Staphylococcus sp.; strain GC 4546
  MIC Staphylococcus haemolyticus (GC 4546): >128 µg/mL
Staphylococcus sp.; strain GC 4547
  MIC Coagulase Negative Staphylococcus (GC 4547): >128 µg/mL
Staphylococcus sp.; strain GC 4548
  MIC Coagulase Negative Staphylococcus (GC 4548): >128 µg/mL
Staphylococcus sp.; strain GC 4549
  MIC Coagulase Negative Staphylococcus (GC 4549): >128 µg/mL
Staphylococcus sp.; strain GC 4551
  MIC Coagulase Negative Staphylococcus (GC 4551): >128 µg/mL
Enterococcus sp.; Enterococcus avium (GC 4558)
  MIC Enterococcus avium (GC 4558): 128 µg/mL (≈ 83.7 µM)
Enterococcus sp.; Enterococcus faecalis (ATCC 29212)
  MIC Enterococcus faecalis (ATCC 29212): >128 µg/mL
Enterococcus sp.; Enterococcus faecalis (GC 4552)
  MIC Enterococcus faecalis (GC 4552): >128 µg/mL
Enterococcus sp.; Enterococcus faecalis (GC 4553)
  MIC Enterococcus faecalis (GC 4553): >128 µg/mL
Enterococcus sp.; Enterococcus faecalis (GC 4554)
  MIC Enterococcus faecalis (GC 4554): >128 µg/mL
Enterococcus sp.; Enterococcus faecalis (GC 6189)
  MIC Enterococcus faecalis (GC 6189): >128 µg/mL
Enterococcus sp.; Enterococcus faecium (GC 2243)
  MIC Enterococcus faecium (GC 2243): >128 µg/mL
Enterococcus sp.; Enterococcus faecium (GC 4556)
  MIC Enterococcus faecium (GC 4556): >128 µg/mL
Enterococcus sp.; Enterococcus faecium (GC 4557)
  MIC Enterococcus faecium (GC 4557): 128 µg/mL (≈ 83.7 µM)
Enterococcus sp.
  MIC Enterococcus avium (GC 4558): 128 µg/mL (≈ 83.7 µM)
  MIC Enterococcus faecalis (ATCC 29212): >128 µg/mL
  MIC Enterococcus faecalis (GC 2242): >128 µg/mL
  MIC Enterococcus faecalis (GC 2691): >128 µg/mL
  MIC Enterococcus faecalis (GC 3059): >128 µg/mL
  MIC Enterococcus faecalis (GC 4552): >128 µg/mL
  MIC Enterococcus faecalis (GC 4553): >128 µg/mL
  MIC Enterococcus faecalis (GC 4554): >128 µg/mL
  MIC Enterococcus faecalis (GC 6189): >128 µg/mL
  MIC Enterococcus faecium (GC 2243): >128 µg/mL
  MIC Enterococcus faecium (GC 4556): >128 µg/mL
  MIC Enterococcus faecium (GC 4557): 128 µg/mL (≈ 83.7 µM)
Enterococcus sp.; strain GC 2242
  MIC Enterococcus faecalis (GC 2242): >128 µg/mL
Enterococcus sp.; strain GC 2691
  MIC Enterococcus faecalis (GC 2691): >128 µg/mL
Enterococcus sp.; strain GC 3059
  MIC Enterococcus faecalis (GC 3059): >128 µg/mL
Streptococcus sp.
  MIC Streptococcus agalactiae (GC 4564): >128 µg/mL
  MIC Streptococcus pneumoniae (ATCC 6301): >128 µg/mL
  MIC Streptococcus pneumoniae (GC 1894): 128 µg/mL (≈ 83.7 µM)
  MIC Streptococcus pneumoniae (GC 4565): >128 µg/mL
  MIC Streptococcus pyogenes (GC 4563): >128 µg/mL
Streptococcus sp.; strain ATCC 6301
  MIC Streptococcus pneumoniae (ATCC 6301): >128 µg/mL
Streptococcus sp.; strain GC 1894
  MIC Streptococcus pneumoniae (GC 1894): 128 µg/mL (≈ 83.7 µM)
Streptococcus sp.; strain GC 4563
  MIC Streptococcus pyogenes (GC 4563): >128 µg/mL
Streptococcus sp.; strain GC 4564
  MIC Streptococcus agalactiae (GC 4564): >128 µg/mL
Streptococcus sp.; strain GC 4565
  MIC Streptococcus pneumoniae (GC 4565): >128 µg/mL
Escherichia coli
  MIC Escherichia coli (ATCC 25922): >128 µg/mL
  MIC Escherichia coli (GC 4559): >128 µg/mL
  MIC Escherichia coli (GC 4560): >128 µg/mL
